The values that follow come from patent US12612410B2 (CHILDREN'S HOSPITAL MEDICAL CENTER, priority 2020, dated 2026).

Bounds are passed on as bounds.

In one test the target is T1, FLT3 (Homo sapiens, UniProt P36888).
T1 sequence (P36888 27-993): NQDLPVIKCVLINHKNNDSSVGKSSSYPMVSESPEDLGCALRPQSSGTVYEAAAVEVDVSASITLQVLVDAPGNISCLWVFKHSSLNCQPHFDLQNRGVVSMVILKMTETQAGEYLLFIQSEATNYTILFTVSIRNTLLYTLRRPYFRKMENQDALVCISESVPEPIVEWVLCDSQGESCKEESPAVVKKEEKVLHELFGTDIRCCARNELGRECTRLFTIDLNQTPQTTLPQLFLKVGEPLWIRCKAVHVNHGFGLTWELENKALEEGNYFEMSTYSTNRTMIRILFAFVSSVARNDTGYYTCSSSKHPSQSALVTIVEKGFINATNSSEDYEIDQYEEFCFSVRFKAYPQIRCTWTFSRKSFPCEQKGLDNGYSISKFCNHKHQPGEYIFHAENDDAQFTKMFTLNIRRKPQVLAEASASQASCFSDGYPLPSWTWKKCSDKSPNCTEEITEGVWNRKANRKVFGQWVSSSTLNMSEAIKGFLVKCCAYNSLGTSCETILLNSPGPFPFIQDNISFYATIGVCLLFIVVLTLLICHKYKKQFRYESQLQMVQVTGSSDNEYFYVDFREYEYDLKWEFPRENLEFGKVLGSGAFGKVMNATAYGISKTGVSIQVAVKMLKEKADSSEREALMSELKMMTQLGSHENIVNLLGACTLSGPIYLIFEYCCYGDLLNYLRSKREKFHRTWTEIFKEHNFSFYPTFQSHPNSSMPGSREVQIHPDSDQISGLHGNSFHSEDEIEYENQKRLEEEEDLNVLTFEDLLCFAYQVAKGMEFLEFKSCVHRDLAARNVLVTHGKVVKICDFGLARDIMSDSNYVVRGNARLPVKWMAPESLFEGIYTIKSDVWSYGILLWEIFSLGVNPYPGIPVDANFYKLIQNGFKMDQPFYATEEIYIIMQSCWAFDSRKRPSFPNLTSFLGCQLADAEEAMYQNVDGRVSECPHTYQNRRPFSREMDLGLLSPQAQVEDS
Briefly: Reaction Biology NanoBRET target engagement assay, FLT3. The format is cell-based. The note with it: transfected HEK-293 cells. From the text:
(§1) The NanoBRET assay measures kinase engagement in real time in the context of the intact cell. Unlike the previously described biochemical kinase assay methodologies in Examples 26-27, the NanoBRET assay measures the binding and activity characteristics under equilibrium conditions using full-length kinases in the presence of cellular concentrations of ATP in live, uncompromised cells. As such, the assay provides a more relevant assessment of kinase potency and selectivity that would be expected to be observed in the native cellular environment, where potency is often considerably lower than that observed in the isolated biochemical assays (Vasta, J. D. et al., (2018) Cell Chem. Biol. 25, 206-214). The assay uses a Kinase-NanoLuc® fusion vector expressing a kinase protein to which a luciferase tag has been added, a cell-permeant fluorescent NanoBRET™ tracer, a NanoLuc® substrate, and an extracellular NanoLuc® inhibitor. Upon expression of the luciferase-tagged kinase, cells will produce a strong BRET signal only in the presence of the NanoBRET™ tracer. The extracellular NanoLuc® inhibitor ensures that the BRET signal observed emanates only from live cells. Because the BRET signal has tight distance constraints, addition of the test compound will decrease the BRET signal if the compound competes with the NanoBRET™ tracer for binding to the kinase domain. Under the appropriate tracer conditions established by the manufacturer, quantitative intracellular affinity and relative potency can then be determined using Mass Action model equations.
(§2) HEK-293 cells were purchased from ATCC. FuGENEHD Transfection Reagent, Kinase-NanoLucfusion plasmids, Transfection Carrier DNA, NanoBRETTracers and dilution buffer, NanoBRETNano-Glo Substrate, Extracellular NanoLucInhibitor were obtained from Promega.
(§3) Assays were conducted following Promega assay protocol with some modifications. HEK-293 Cells were transiently transfected with Kinase-NanoLucFusion Vector DNA by FuGENEHD Transfection Reagent. Testing compounds were delivered into 384 well assay plate by Echo 550 (Labcytelnc, Sunnyvale, CA). Transfected cells were harvested and mixed with NanoBRETTracer Reagent and dispensed into 384 well plates and incubated at 37° C. in 5% CO2 cell culture incubator for 1 hour. The NanoBRETNano-Glo Substrate plus Extracellular NanoLucInhibitor Solution were added into the wells of the assay plate and incubated for 2-3 minutes at room temperature. The donor emission wavelength (460 nm) and acceptor emission wavelength (600 nm) were measured in the EnVisionplate reader. The BRET Ratios were calculated. BRET Ratio=[(Acceptor sample÷Donor sample)−(Acceptor no-tracer control÷Donor no-tracer control)]. The IC50 values of compounds were calculated with Prism GraphPad program.
(§4) NanoBRET™ Target Engagement Assay Protocol
(§5) 1. Transient Transfection of HEK-293 Cells NanoLuc® Fusion Vector DNA
(§6) • 1). Cultivate HEK-293 cells (70-80% confluence) appropriately prior to assay. Trypsinize and collect HEK-293 cells. • 2). Prepare lipid: DNA complexes as follows: • a. Prepare a […] solution of DNA in Opti-MEM without serum that consists of the following ratios of carrier DNA and DNA encoding NanoLuc® fusion. 9.0 µg/mL of Transfection Carrier DNA, […] of NanoLuc fusion vector DNA and 1 mL of Opti-MEM without phenol red. Mix thoroughly. • b. Add 30 l of FuGENE HD Transfection Reagent into each milliliter of DNA mixture to form lipid: DNA complex. • c. Mix by inversion 10 times. • d. Incubate at ambient temperature for 20 minutes to allow complexes to form. • 3). In a sterile, conical tube, mix 1 part of lipid: DNA complex with 20 parts of HEK-293 cells in suspension. Mix gently by inversion 5 times. • 4). Dispense cells+lipid: DNA complex into a sterile tissue culture dish and incubate for 22-24 hours. 2. Addition of Test Compounds (dry plate shooting)
(§7) Each test compound is delivered from the compound source plate to the wells of 384-well white NBS plate by Echo 550.
3. […]

A further test has as its target T2, IRAK4 (Homo sapiens, UniProt Q9NWZ3).
T2 sequence (Q9NWZ3 1-460): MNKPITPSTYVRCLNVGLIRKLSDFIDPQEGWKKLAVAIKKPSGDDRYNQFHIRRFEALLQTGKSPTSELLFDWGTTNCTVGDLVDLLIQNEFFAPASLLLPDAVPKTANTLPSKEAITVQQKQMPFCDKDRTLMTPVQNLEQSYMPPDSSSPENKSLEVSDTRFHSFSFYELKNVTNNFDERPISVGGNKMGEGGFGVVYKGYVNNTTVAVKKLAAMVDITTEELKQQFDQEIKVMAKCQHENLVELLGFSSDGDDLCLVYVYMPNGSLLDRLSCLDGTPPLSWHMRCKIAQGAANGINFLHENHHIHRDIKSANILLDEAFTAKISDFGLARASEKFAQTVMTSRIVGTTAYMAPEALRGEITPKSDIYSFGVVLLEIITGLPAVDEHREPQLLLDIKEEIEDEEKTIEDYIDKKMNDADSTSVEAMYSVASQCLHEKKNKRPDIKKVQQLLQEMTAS
Briefly: Reaction Biology NanoBRET target engagement assay, IRAK4. It counts as cell-based. Conditions: transfected HEK-293 cells.
Description: as §1, §2, §3, §4, §5, §6, §7
3. […]

With `FC(F)COc1cn2c(-c3cccc(N[C@H]4CNC[C@@H]4F)n3)cnc2cn1` [Compound 58, 6-(6-(2,2-difluoroethoxy)imidazo[1,2-a]pyrazin-3-yl)-N-((3S,4S)-4-fluoropyrrolidin-3-yl)pyridin-2-amine], the IC50 against FLT3 is 52 nM; at IRAK4 it was less than 0.5 nM.
In the same order, the values of `O=S1(=O)CCCN1c1cn2c(-c3cccc(N[C@H]4CNCC[C@@H]4F)n3)cnc2cn1` [Compound 97, 2-(3-(6-(((3S,4S)-4-fluoropiperidin-3-yl)amino)pyridin-2-yl)imidazo[1,2-a]pyrazin-6-yl)isothiazolidine 1,1-dioxide] are 0.9 nM and 0.9 nM.
In the same order, the values of `O=C1CCCN1c1cn2c(-c3nc(N[C@H]4CNCC[C@@H]4F)c(F)cc3F)cnc2cn1` [Compound 107, 1-[3-[3,5-difluoro-6-[[(3S,4S)-4-fluoro-3-piperidyl]amino]-2-pyridyl]imidazo[1,2-a]pyrazin-6-yl]pyrrolidin-2-one] are 0.9 nM and 10 nM.
Turning to `O=C1CCCN1c1cn2c(-c3nc(N[C@@H]4CCCNC4)c(F)cc3F)cnc2cn1` [Compound 108, (R)-1-(3-(3,5-difluoro-6-(piperidin-3-ylamino)pyridin-2-yl)imidazo[1,2-a]pyrazin-6-yl)pyrrolidin-2-one], the IC50 at FLT3 amounted to 31 nM; at IRAK4, 1 nM.
In the same order, the values of `O=C1CCCN1c1cn2c(-c3cccc(N[C@H]4CNCC[C@@H]4F)n3)cnc2cn1` [Compound 119, 1-(3-(6-(((3S,4S)-4-fluoropiperidin-3-yl)amino)pyridin-2-yl)imidazo[1,2-a]pyrazin-6-yl)pyrrolidin-2-one] are 16 nM and 2 nM.
As to `O=C1CCCN1c1cn2c(-c3cccc(N[C@H]4CNC[C@@H]4F)n3)cnc2cn1` [Compound 121, 1-(3-(6-(((3S,4S)-4-fluoropyrrolidin-3-yl)amino)pyridin-2-yl)imidazo[1,2-a]pyrazin-6-yl)pyrrolidin-2-one], the IC50 on FLT3 is 21 nM; against IRAK4 it was 2 nM.
Turning to `CC(C)(C)c1cn2c(-c3nc(N[C@H]4CNC[C@@H]4F)c(F)cc3F)cnc2cn1` [Compound 125], the IC50 was 937 nM against FLT3 and less than 0.5 nM against IRAK4.
As for `CC(C)(C)c1cn2c(-c3nc(N[C@@H]4CCCNC4)c(F)cc3F)cnc2cn1` [Compound 126, (R)-6-(6-(tert-butyl)imidazo[1,2-a]pyrazin-3-yl)-3,5-difluoro-N-(piperidin-3-yl)pyridin-2-amine], the IC50 on FLT3 was 8 nM; on IRAK4, less than 0.5 nM.
In the same order, the values of `CC(C)(C)c1cn2c(-c3nc(N[C@H]4CNCC[C@@H]4F)c(F)cc3F)cnc2cn1` [Compound 127, 6-(6-(tert-butyl)imidazo[1,2-a]pyrazin-3-yl)-3,5-difluoro-N-((3S,4S)-4-fluoropiperidin-3-yl)pyridin-2-amine] are 16 nM and 0.4 nM.
The matching figures for `CC(C)(C)c1cn2c(-c3cccc(N[C@@H]4CCCNC4)n3)cnc2cn1` [Compound 129, (R)-6-(6-(tert-butyl)imidazo[1,2-a]pyrazin-3-yl)-N-(piperidin-3-yl)pyridin-2-amine]: 12 nM and less than 0.5 nM.
The matching figures for `CC(C)(C)c1cn2c(-c3cccc(N[C@H]4CNCC[C@@H]4F)n3)cnc2cn1` [Compound 130, 6-(6-(tert-butyl)imidazo[1,2-a]pyrazin-3-yl)-N-((3S,4S)-4-fluoropiperidin-3-yl)pyridin-2-amine]: 11 nM and less than 0.5 nM.
